Measured values: US12240862B2, “Inhibitors of peptidylarginine deiminases” (Gilead Sciences, Inc., priority 2020, dated 2025)

The compounds below were run against T1, human PAD4 (Homo sapiens, UniProt Q9UM07) (assay: In vitro PAD4 BAEE biochemical assay). Settings: human PAD4, BAEE substrate; 5 nM PAD4, 2 mM calcium chloride, 3 mM BAEE; geometric mean of multiple experiments.
T1 construct: human PAD4 (NM_012387), A2P663, was PCR amplified; His-SUMO (N, cleaved yes); made in house; host or cells: E. coli BL21(DE3)
Outline: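 Tag-free recombinant hPAD4 (5 nM), 2 mM CaCl2, 3 mM BAEE, 50 mM MOPS pH 7.6, 2 mM DTT; 30 min compound preincubation, 2 h reaction, all 25 °C. EDTA quench; ammonia read via o-phthalaldehyde amine coupling, 1 h.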

T1 sequence (Q9UM07 2-663): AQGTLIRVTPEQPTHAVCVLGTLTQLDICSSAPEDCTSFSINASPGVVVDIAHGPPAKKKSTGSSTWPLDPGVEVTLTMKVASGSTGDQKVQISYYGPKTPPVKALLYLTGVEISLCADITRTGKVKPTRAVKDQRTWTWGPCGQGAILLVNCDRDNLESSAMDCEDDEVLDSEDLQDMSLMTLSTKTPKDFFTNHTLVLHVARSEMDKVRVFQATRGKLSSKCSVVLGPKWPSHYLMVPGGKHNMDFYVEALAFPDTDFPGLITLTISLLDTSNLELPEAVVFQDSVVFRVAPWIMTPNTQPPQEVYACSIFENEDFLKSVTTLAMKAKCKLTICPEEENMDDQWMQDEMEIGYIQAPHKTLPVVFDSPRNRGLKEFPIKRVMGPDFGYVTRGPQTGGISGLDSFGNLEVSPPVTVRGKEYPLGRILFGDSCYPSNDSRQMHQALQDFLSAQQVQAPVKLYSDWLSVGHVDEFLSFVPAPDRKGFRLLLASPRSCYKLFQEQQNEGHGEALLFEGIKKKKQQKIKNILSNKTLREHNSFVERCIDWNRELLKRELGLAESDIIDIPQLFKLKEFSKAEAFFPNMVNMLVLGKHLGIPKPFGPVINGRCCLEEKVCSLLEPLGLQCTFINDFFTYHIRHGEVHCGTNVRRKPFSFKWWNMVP

| IC50 [µM] | Compound |
| --- | --- |
| 0.294 | COc1cc(C(=O)N2[C@H]3CC[C@@H]2[C@H](N)C3)cc2nc(-c3cc4ccc(N5Cc6ccccc6CS5(=O)=O)nc4n3CC3CC3)c(C)n12 [Example 461, [(1~{R},2~{R},4~{S})-2-amino-7-azabicyclo [2.2.1]heptan-7-yl]-[2-[1-(cyclopropylmethyl)-6-(2,2-dioxo-1,4-dihydro-2$l^6,3-benzothiazin-3-yl)pyrrolo[2,3-b]pyridin-2-yl]-5-methoxy-3-methylimidazo[1,2-a]pyridin-7-yl]methanone] |
| 0.0336 | COc1cc(C(=O)N2[C@H]3CC[C@@H]2[C@H](N)C3)cc2nc(-c3cc4ccc([C@@H](C)NC(=O)C56CC(CO)(C5)C6)nc4n3CC3CC3)c(C)n12 [Example 65] |
| 0.1 | COc1cc(C(=O)N2[C@H]3CC[C@@H]2[C@H](N)C3)cc2nc(-c3cc4ccc(N(C5CCC5)S(C)(=O)=O)nc4n3CC3CC3)c(C)n12 [Example 477, ~{N}-[2-[7-[(1~{R}, 2~{R},4~{S})-2-amino-7-azabicyclo[2.2.1]heptane-7-carbonyl]-5-methoxy-3-methylimidazo[1,2-a]pyridin-2-yl]-1-(cyclopropylmethyl)pyrrolo [2,3-b]pyridin-6-yl]-~{N}-cyclobutylmethane-sulfonamide] |
| 0.152 | CCc1ccc2cc(-c3nc4cc(C(=O)N5[C@H]6CC[C@@H]5[C@H](N)C6)cc(OC)n4c3C)n(Cc3ccncc3)c2n1 [Example 507, [(1~{R},2~{R},4~{S})-2-amino-7-azabicyclo [2.2.1]heptan-7-yl]-[2-[6-ethyl-1-(pyridin-4-ylmethyl)pyrrolo[2,3-b]pyridin-2-yl]-5-methoxy-3-methylimidazo[1,2-a]pyridin-7-yl]methanone] |
| 0.0777 | COc1cc(C(=O)N2[C@H]3CC[C@@H]2[C@H](N)C3)cc2nc(-c3cc4ccc(C(C)CC#N)nc4n3CC3CC3)c(C)n12 (stereo partly drawn) [Example 557, 3-[2-[7-[(1~{R},2~{R}, 4~{S})-2-amino-7-azabicyclo[2.2.1]heptane-7-carbonyl]-5-methoxy-3-methylimidazo[1,2-a]pyridin-2-yl]-1-(cyclopropylmethyl)pyrrolo [2,3-b]pyridin-6-yl] butanenitrile] |
| 13 | COc1cc(C(=O)N2CCCC(C)(N)C2)cc2nc(-c3cc4ccc([C@@H](C)NC(=O)C56CC(F)(C5)C6)nc4n3CC3CC3)c(C3CC3)n12 (stereo partly drawn) [Example 124, ~{N}-[(1~{R})-1-[2-[7-(3-amino-3-methylpiperidine-1-carbonyl)-3-cyclopropyl-5-methoxyimidazo [1,2-a]pyridin-2-yl]-1-(cyclopropylmethyl)pyrrolo [2,3-b]pyridin-6-yl]ethyl]-3-fluorobicyclo[1.1.1]pentane-1-carboxamide] |
| 11.3 | CC1(c2c(-c3cc4ccc(N(C(F)F)S(C)(=O)=O)nc4n3CC3CC3)nc3cc(C(=O)N4CCC[C@@H](N)C4)ccn23)CC1 [Example 435, ~{N}-[2-[7-[(3~{R})-3-aminopiperidine-1-carbonyl]-3-(1-methylcyclopropyl)imidazo[1,2-a]pyridin-2-yl]-1-(cyclopropylmethyl)pyrrolo[2,3-b]pyridin-6-yl]-~{N}-(difluoromethyl) methanesulfonamide] |
| 0.0645 | COc1cc(C(=O)N2[C@H]3CC[C@@H]2[C@H](N)C3)cc2nc(-c3cc4ccc([C@@H](C)NC(=O)NC5(C)CC(F)(F)C5)nc4n3CC3CC3)c(C)n12 [Example 212, 1-[(1~{R})-1-[2-[7-[(1~{R},2~{R},4~{S})-2-amino-7-azabicyclo[2.2.1]heptane-7-carbonyl]-5-methoxy-3-methylimidazo [1,2-a]pyridin-2-yl]-1-(cyclopropylmethyl)pyrrolo [2,3-b]pyridin-6-yl]ethyl]-3-(3,3-difluoro-1-methylcyclobutyl)urea] |
| 17.7 | CCc1ccc2cc(-c3nc4cc(C(=O)N5[C@H]6CC[C@@H]5[C@H](N)C6)cc(OC)n4c3C)n(-c3ccccc3)c2n1 [Example 512, [(1~{R},2~{R},4~{S})-2-amino-7-azabicyclo [2.2.1]heptan-7-yl]-[2-(6-ethyl-1-phenylpyrrolo [2,3-b]pyridin-2-yl)-5-methoxy-3-methylimidazo [1,2-a]pyridin-7-yl]methanone] |
| 0.079 | [2H]C([2H])([2H])OC(=O)N[C@H](C)c1ccc2cc(-c3nc4cc(C(=O)N5[C@H]6CC[C@@H]5[C@H](N)C6)cc(OC)n4c3C)n(CC3CC3)c2n1 [Example 164, trideuteriomethyl~{N}-[(1~{R})-1-[2-[7-[(1~{R},2~{R},4~{S})-2-amino-7-azabicyclo[2.2.1]heptane-7-carbonyl]-5-methoxy-3-methylimidazo[1,2-a]pyridin-2-yl]-1-(cyclopropylmethyl)pyrrolo [2,3-b]pyridin-6-yl]ethyl] carbamate] |
| 9.82 | COc1cc(C(=O)N2CCC[C@@H](N)C2)cc2nc(-c3cc4cc(F)c(Cl)cc4n3CC3CC3)c(C)n12 [Example 590, [(3~{R})-3-aminopiperidin-1-yl]-[2-[6-chloro-1-(cyclopropylmethyl)-5-fluoroindol-2-yl]-5-methoxy-3-methylimidazo[1,2-a]pyridin-7-yl]methanone] |
| 4.68 | CCc1ccc2cc(-c3nc4cc(C(=O)N5[C@H]6CC[C@@H]5[C@H](N)C6)cc(OC)n4c3C)n(-c3cnc(C)s3)c2n1 [Example 511, [(1~{R},2~{R},4~{S})-2-amino-7-azabicyclo [2.2.1]heptan-7-yl]-[2-[6-ethyl-1-(2-methyl-1,3-thiazol-5-yl)pyrrolo [2,3-b]pyridin-2-yl]-5-methoxy-3-methylimidazo [1,2-a]pyridin-7-yl] methanone] |
| 0.711 | COc1cc(C(=O)N2[C@@H]3C[C@@H](N)[C@H]2CC3C)cc2nc(-c3cc4ccc(N(C(F)F)S(C)(=O)=O)nc4n3CC3CC3)c(C)n12 (stereo partly drawn) [Example 352, N-[2-[7-[(1R,2R,4R)-2-amino-5-methyl-7-azabicyclo[2.2.1]heptane-7-carbonyl]-5-methoxy-3-methyl-imidazo[1,2-a]pyridin-2-yl]-1-(cyclopropylmethyl)pyrrolo [2,3-b]pyridin-6-yl]-N-(difluoromethyl) methanesulfonamide] |
| 0.0242 | COc1cc(C(=O)N2[C@H]3CC[C@@H]2[C@H](N)C3)cc2nc(-c3cc4ccc([C@@H](C)NC(=O)c5ccnc(C)c5)nc4n3CC3CC3)c(C)n12 [Example 47, ~{N}-[(1~{R})-1-[2-[7-[(1~{R},2~{R},4~{S})-2-amino-7-azabicyclo[2.2.1]heptane-7-carbonyl]-5-methoxy-3-methylimidazo [1,2-a]pyridin-2-yl]-1-(cyclopropylmethyl)pyrrolo[2,3-b]pyridin-6-yl]ethyl]-2-methylpyridine-4-carboxamide] |
| 0.0598 | COc1cc(C(=O)N2[C@H]3CC[C@@H]2[C@H](N)C3)cc2nc(-c3cc4ccc([C@@H](C)NC(=O)C5(C)CC5)nc4n3CC3CC3)c(C)n12 [Example 151, ~{N}-[(1~{R})-1-[2-[7-[(1~{R},2~{R},4~{S})-2-amino-7-azabicyclo[2.2.1]heptane-7-carbonyl]-5-methoxy-3-methylimidazo [1,2-a]pyridin-2-yl]-1-(cyclopropylmethyl)pyrrolo [2,3-b]pyridin-6-yl]ethyl]-1-methylcyclopropane-1-carboxamide] |
| 0.0559 | COc1cc(C(=O)N2[C@H]3CC[C@@H]2[C@H](N)C3)cc2nc(-c3cc4ccc([C@@H](C)NC(=O)N5CC[C@H](F)C5)nc4n3CC3CC3)c(C)n12 [Example 248, (3~{S})-~{N}-[(1~{R})-1-[2-[7-[(1~{R},2~{R},4~{S})-2-amino-7-azabicyclo[2.2.1]heptane-7-carbonyl]-5-methoxy-3-methylimidazo [1,2-a]pyridin-2-yl]-1-(cyclopropylmethyl)pyrrolo [2,3-b]pyridin-6-yl]ethyl]-3-fluoropyrrolidine-1-carboxamide] |
| 0.307 | CCO[C@@H]1CCN(C(=O)c2cc(OC)n3c(C)c(-c4cc5ccc([C@@H](C)NC(=O)c6ccccc6)nc5n4CC4CC4)nc3c2)C[C@@H]1N [Example 112, ~{N}-[(1~{R})-1-[2-[7-[(3~{S},4~{R})-3-amino-4-ethoxypiperidine-1-carbonyl]-5-methoxy-3-methylimidazo[1,2-a]pyridin-2-yl]-1-(cyclopropylmethyl)pyrrolo [2,3-b]pyridin-6-yl]ethyl]benzamide] |
| 0.207 | COc1cc(C(=O)N2[C@H]3CC[C@@H]2[C@H](N)C3)cc2nc(-c3cc4ccc(N5C[C@@H](C)OCS5(=O)=O)nc4n3CC3CC3)c(C)n12 [Example 440, [(1~{R},2~{R},4~{S})-2-amino-7-azabicyclo [2.2.1]heptan-7-yl]-[2-[1-(cyclopropylmethyl)-6-[(6~{R})-6-methyl-3,3-dioxo-1,3,4-oxathiazinan-4-yl]pyrrolo [2,3-b]pyridin-2-yl]-5-methoxy-3-methylimidazo [1,2-a]pyridin-7-yl] methanone] |
| 10.6 | CCOC1C[C@@H]2CN(C(=O)c3cc(OC)n4c(C)c(-c5cc6ccc(N(C(F)F)S(C)(=O)=O)nc6n5CC5CC5)nc4c3)[C@H]1[C@@H]2N (stereo partly drawn) [Example 371, N-[2-[7-[(1S,4R,7R)-7-amino-6-ethoxy-2-azabicyclo[2.2.1]heptane-2-carbonyl]-5-methoxy-3-methyl-imidazo[1,2-a]pyridin-2-yl]-1-(cyclopropylmethyl)pyrrolo [2,3-b]pyridin-6-yl]-N-(difluoromethyl) methanesulfonamide] |
| 0.0314 | COc1cc(C(=O)N2[C@H]3CC[C@@H]2[C@H](N)C3)cc2nc(-c3cc4ccc([C@@H](C)NC(=O)c5ccncc5F)nc4n3CC3CC3)c(C)n12 [Example 52] |
| 0.128 | COc1cc(C(=O)N2CCC[C@@H](N)C2)cc2nc(-c3cc4ccc(C(C)CC(=O)N(C)C)nc4n3CC3CC3)c(C)n12 (stereo partly drawn) [Example 536, 3-[2-[7-[(3~{R})-3-aminopiperidine-1-carbonyl]-5-methoxy-3-methylimidazo[1,2-a]pyridin-2-yl]-1-(cyclopropylmethyl)pyrrolo[2,3-b]pyridin-6-yl]-~{N},~{N}-dimethylbutanamide] |
